The values below come from patent publication US7202239B2, “Cyclohexylphenyl carboxamides tocolytic oxytocin receptor antagonists” (Wyeth, priority 2001, dated 2007).

Where only a bound is given, the exact number is not on record here.

This test concerns the target human V2 vasopressin receptor subtype (Homo sapiens, UniProt P30518). Kind of test: Vasopressin binding in CHO cell membranes expressing human vasopressin V2 subtype receptors. Particulars: [3H]arginine vasopressin; for IC50: value in parentheses; for V2 % inhibition at 100 nM / inhibition at 0.1 µM: 100 nM. An excerpt:
Vasopressin Binding in Chinese Hamster Ovary Cell Membranes Expressing Human Vasopressin V2 Subtype Receptors
Chinese Hamster Ovary (CHO) cells stably transfected with the human V2 subtype receptors were obtained from M. Thibonnier, Case Western Reserve University School of Medicine, Cleveland, Ohio.
A. Passaging and Amplification of Cells:
CHO cells transfected with the human vasopressin V2 subtype receptors obtained from M. Thibonnier (pZeoSV vector) are allowed to grow to confluency (approx. >90%) in T-150 flasks under sterile conditions, in a cell culture medium of F-12 Nutrient Mixture (HAM) with L-glutamine (Gibco Cat. # 11765-054) containing 15 mM HEPES (Gibco Cat. # 15630-080), 1% antibiotic/antimycotic (add 5 mL 100×, Gibco Cat. # 15240-062 per 500 mL F-12), 250 μg/mL Zeocin (add 1.25 mL of 100 mg/mL Invitrogen R-250-01 per 500 mL F-12) and 10% Fetal Bovine Serum (Qualified, heat inactivated, Gibco Cat. # 16140-063). The medium is removed by aspiration and the cells washed with 10 mL of Hank's Balanced Salt solution (Gibco Cat. # 14175-095). The salt solution is removed by aspiration and the cells trypsinized with 5 mL of trypsin-EDTA (0.05% trypsin, 0.53 mM EDTA-4Na, Gibco Cat. # 25300-070) for 1 min. The trypsin is removed by aspiration and the cells dislodged by tapping. Cell Culture medium (e.g. 30 mL for 1:30 split) is immediately added and mixed well to inactivate trypsin. 1 mL of detached cells is added to new culture flasks containing fresh Cell Culture medium (e.g. into 25 mL per T-150 flask), and mixed gently. The cells are incubated at 37° C. in 5% CO2. The medium is changed at 3 to 4 day interval (or as appropriate). The cells grow to confluency (approx. >75%–95%) within 7–8 days. All steps are done under sterile conditions. B. Membrane Preparation: The cells are washed twice gently with Hank's Balanced Salt solution (e.g. use 10 mL per T-150 flask). The excess solution is removed and the cells bathed for 15–30 min. in an enzyme-free Cell Dissociation Buffer (e.g. use 8 mL Hank's Based, Gibco Cat. # 13150-016 per T-150 flask) until cells are loosened. The contents are transferred to centrifuge tubes (50 mL) kept in an ice bath. All subsequent steps are done at 4° C. The tubes are centrifuged at 300× g for 15 min (1380 rpm on SORVAL, Model RT6000D, using the rotor for 50 mL tubes). The supernatant is discarded and the cells suspended in homogeneizing buffer(10 mM Tris-HCl containing 0.25 M sucrose and 1 mM EDTA, pH 7.4) ensuring that the volume of the buffer is about ten times the volume of the cell pellet. The cells are pooled into a centrifuge tube (50 mL) and homogenized with a Polytron at setting 6 for 10 sec. The homogenate is transferred into a Potter-Elvjehm homogeneizer and homogenized with 3 strokes. The homogenate is centrifuged at 1500×g for 60 min at 4° C. (3100 rpm using SORVAL, model RT6000D, using the rotor for 50 mL tubes). The pellet is discarded. The supernatant is centrifuged at 100,000×g for 60 min. at 4° C. (Beckman L8-80M ultracentrifuge; spin at 37,500 rpm with rotor type 70 Ti for 50 mL tubes; 38,000 rpm with type 80Ti for 15 mL tubes; or 35,800 rpm with rotor type 45Ti). The supernantant is discarded and the pellet suspended in 3 to 4 mL of Tris buffer (50 mM TRIS-HCl, pH 7.4). The protein content is estimated by the Bradford or Lowry method. The volume of the membrane suspension is adjusted with the membrane buffer (50 mM Tris-HCl containing 0.1% BSA and 0.1 mM PMSF) to give 3.0 mg/mL (or as appropriate) of protein. The membranes are aliquoted and stored at −70° C. C. Radioligand Binding Assay: In wells of a 96-well format microtiter plate, is added 90, 110 or 130 μL (to make up a final volume of 200 μL) of assay buffer containing 50 mM of Tris-HCl (pH 7.4), […], 1 mg % aprotinin, 1 mg % leupeptin, 2 mg % 1,10-phenanthroline, 10 mg % trypsin inhibitor, and 0.1 mM PMSF. The inhibitors are added on the day of the experiment. […]

What is called IC50 is the concentration that gives 50% inhibition. As a reminder, the inhibition is how much of the control response was suppressed. A lower inhibition goes with a response near the control.

Chain of human V2 vasopressin receptor subtype (P30518 whole entry): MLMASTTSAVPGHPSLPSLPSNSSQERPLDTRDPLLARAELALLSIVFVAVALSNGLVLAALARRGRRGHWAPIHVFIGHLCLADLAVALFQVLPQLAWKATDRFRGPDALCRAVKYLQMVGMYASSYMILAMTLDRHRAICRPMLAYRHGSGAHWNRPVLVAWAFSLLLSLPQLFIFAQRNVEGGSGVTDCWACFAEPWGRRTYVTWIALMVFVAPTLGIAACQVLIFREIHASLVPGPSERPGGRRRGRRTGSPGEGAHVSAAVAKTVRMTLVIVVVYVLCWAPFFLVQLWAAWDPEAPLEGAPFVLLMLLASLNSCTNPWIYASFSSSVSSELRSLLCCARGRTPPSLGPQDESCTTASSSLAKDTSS

Regarding `CC(=O)c1ccc2n1Cc1ccccc1N(C(=O)c1ccc(C3CCCCC3)cc1)C2` [Example 6, 1-[10-(4-Cyclohexyl-benzoyl)-10,11-dihydro-5H-pyrrolo[2,1-c][1,4]benzodiazepin-3-yl]-ethanone], the IC50 is greater than 1000 nM. On to `NNC(=O)c1ccc2n1Cc1ccccc1N(C(=O)c1ccc(C3CCCCC3)cc1)C2` [Example 8, 10-(4-Cyclohexy-benzoyl)-10,11-dihydro-5H-pyrrolo[2,1-c][1,4]benzodiazepine-3-carboxylic acid hydrazide], for which the IC50 is greater than 1000 nM. With `CC(=O)NNC(=O)c1ccc2n1Cc1ccccc1N(C(=O)c1ccc(C3CCCCC3)cc1)C2` [Example 11, N′-Acetyl-10-(4-cyclohexyl-benzoyl)-10,11-dihydro-5H-pyrrolo[2,1-c][1,4]benzodiazepine-3-carbonyl-hydrazide], the IC50 is greater than 1000 nM. As for `Cc1ccccc1C(=O)NNC(=O)c1ccc2n1Cc1ccccc1N(C(=O)c1ccc(C3CCCCC3)cc1)C2` [Example 12, 10-(4-Cyclohexyl-benzoyl)-N′-(2-methylbenzoyl)-10,11-dihydro-5H-pyrrolo[2,1-c][1,4]benzodiazepine-3-carbonyl-hydrazide], the “V2 % inhibition at 100 nM” value is 7%. On to `O=C(NNC(=O)C1CC1)c1ccc2n1Cc1ccccc1N(C(=O)c1ccc(C3CCCCC3)cc1)C2` [Example 13, 10-(4-Cyclohexyl-benzoyl)-N′-(cyclopropylcarbonyl)-10,11-dihydro-5H-pyrrolo[2,1-c][1,4]benzodiazepine-3-carbonyl-hydrazide], for which the “V2 % inhibition at 100 nM” value amounted to 18%. For the compound `Cc1cccc(C(=O)NNC(=O)c2ccc3n2Cc2ccccc2N(C(=O)c2ccc(C4CCCCC4)cc2)C3)c1` [Example 14, 10-(4-Cyclohexyl-benzoyl)-N′-(3-methyl-benzoyl)-10,11-dihydro-5H-pyrrolo[2,1-c][1,4]benzodiazepine-3-carbonyl-hydrazide], the “V2 % inhibition at 100 nM” value was 4%. Turning to `O=C(NNC(=O)c1ccc2n1Cc1ccccc1N(C(=O)c1ccc(C3CCCCC3)cc1)C2)Nc1ccccc1` [Example 15, 2-{[10-(4-Cyclohexyl-benzoyl)-10,11-dihydro-5H-pyrrolo[2,1-c][1,4]benzodiazepin-3-yl]carbonyl}-N-phenyl-1-hydrazinecarboxamide], the inhibition at 0.1 µM turned out to be 11%. Turning to `CN(N)C(=O)c1ccc2n1Cc1ccccc1N(C(=O)c1ccc(C3CCCCC3)cc1)C2` [Example 21, 10-(4-Cyclohexyl-benzoyl)-N-methyl-10,11-dihydro-5H-pyrrolo[2,1-c][1,4]benzodiazepine-3-carboxylic acid hydrazide], at 0.1 µM the inhibition was 13%. As for `O=C(O)c1ccc2n1Cc1ccccc1N(C(=O)c1ccc(C3CCCCC3)cc1)C2` [Example 22, 10-(4-Cyclohexyl-benzoyl)-10,11-dihydro-5H-pyrrolo[2,1 c][1,4]benzodiazepine-3-carboxylic acid], the “V2 % inhibition at 100 nM” value amounted to 19%. As for `O=C(c1ccc2n1Cc1ccccc1N(C(=O)c1ccc(C3CCCCC3)cc1)C2)N1CCN(c2ncccn2)CC1` [Example 23], the IC50 was greater than 1000 nM. For `O=C(c1ccc2n1Cc1ccccc1N(C(=O)c1ccc(C3CCCCC3)cc1)C2)N1CCC(N2CCCC2)CC1` [Example 25, [10-(4-Cyclohexyl-benzoyl)-10,11-dihydro-5H-pyrrolo[2,1-c][1,4]benzodiazepin-3-yl][4-(1-pyrrolidinyl)-1-piperidinyl]methanone], the IC50 was greater than 1000 nM. For the compound `O=C(c1ccc2n1Cc1ccccc1N(C(=O)c1ccc(C3CCCCC3)cc1)C2)N1CCC(N2CCCCC2)CC1` [Example 26, [1,4′]Bipiperidinyl-1′-yl-[10-(4-cyclohexyl-benzoyl)-10,11-dihydro-5H-pyrrolo[2,1-c][1,4]benzodiazepin-3-yl]-methanone], the IC50 was greater than 1000 nM. Still for that read-out and setting: to `O=C(c1ccc2n1Cc1ccccc1N(C(=O)c1ccc(C3CCCCC3)cc1)C2)N1CCN(c2ccccn2)CC1` [Example 28, [10-(4-Cyclohexyl-benzoyl)-10,11-dihydro-5H-pyrrolo[2,1-c][1,4]benzodiazepine 3-yl][4-(2-pyridinyl)-1-piperazinyl]-methanone] belongs greater than 1000 nM. On to `COc1ccc(NC(=O)c2ccc3n2Cc2ccccc2N(C(=O)c2ccc(C4CCCCC4)cc2)C3)cc1` [Example 29, 10-(4-Cyclohexyl-benzoyl)-10,11-dihydro-5H-pyrrolo[2,1-c][1,4]benzodiazepine-3-carboxylic acid (4-methoxy-phenyl)-amide], for which 0.1 µM produced 8% inhibition.

For the compound `O=C(C(=O)N1CCC(N2CCCCC2)CC1)c1ccc2n1Cc1ccccc1N(C(=O)c1ccc(C3CCCCC3)cc1)C2` [Example 31, 1-[1.4′]Bipiperidinyl-1′-yl-2-[10-(4-cyclohexyl-benzoyl)-10,11-dihydro-5H-pyrrolo[2,1-c][1,4]benzodiazepin-3-yl]-ethane-1,2-dione], the “V2 % inhibition at 100 nM” value was determined as 2%.

For `CN1CCN(C(=O)C(=O)c2ccc3n2Cc2ccccc2N(C(=O)c2ccc(C4CCCCC4)cc2)C3)CC1` [Example 32, 1-[10-(4-Cyclohexyl-benzoyl)-10,11-dihydro-5H-pyrrolo[2,1-c][1,4]benzodiazepin-3-yl]-2-(4-methyl-1-piperazin-1-yl)-1,2-ethane-1,2-dione], the “V2 % inhibition at 100 nM” value was 6%.

In turn, `CN(C)CCCNC(=O)c1ccc2n1Cc1ccccc1N(C(=O)c1ccc(C3CCCCC3)cc1)C2` [Example 33, 10-(4-Cyclohexyl-benzoyl)-N-[3-(dimethylamino)propyl]-10,11-dihydro-5H-pyrrolo[2,1-c][1,4]benzodiazepine-3-carboxamide] gave an inhibition at 0.1 µM of 14%. On the same count and under the same terms, to `CN(C)CCN(C)C(=O)c1ccc2n1Cc1ccccc1N(C(=O)c1ccc(C3CCCCC3)cc1)C2` [Example 34, 10-(4-Cyclohexyl-benzoyl)-N-[2-(dimethylamino)-ethyl]-N-methyl-10,11-dihydro-5H-pyrrolo[2,1-c][1,4]benzodiazepine-3-carboxamide] belongs 17%; to `CN(C)CCCN(C)C(=O)c1ccc2n1Cc1ccccc1N(C(=O)c1ccc(C3CCCCC3)cc1)C2` [Example 35, 10-(4-Cyclohexyl-benzoyl)-N-[3-(dimethylamino)propyl]N-methyl-10,11-dihydro-5H-pyrrolo[2,1-c][1,4]benzodiazepine-3-carboxamide], 16%; to `O=C(NCCCn1ccnc1)c1ccc2n1Cc1ccccc1N(C(=O)c1ccc(C3CCCCC3)cc1)C2` [Example 36, 10-(4-Cyclohexyl-benzoyl)-N-[3-(1H-imidazol-1-yl)propyl]-10,11-dihydro-5H-pyrrolo[2,1-c][1,4]benzodiazepine-3-carboxamide], 1%.

The compound `O=C(NCCN1CCCCC1)c1ccc2n1Cc1ccccc1N(C(=O)c1ccc(C3CCCCC3)cc1)C2` [Example 37, 10-(4-Cyclohexyl-benzoyl)-N-[2-(1-piperidinyl)ethyl]-10,11-dihydro-5H-pyrrolo[2,1-c][1,4]benzodiazepine-3-carboxamide] showed an inhibition at 0.1 µM of 8%.
